Assay results from the supplement of paper PMC10307832.

Experiments:
Assay in all cases: relative viability (nuclei count vs DMSO), 5 days (fraction); higher = more cells survive
[1] = compound: CC1(C)CNc2cc(NC(=O)c3cccnc3NCc3ccncc3)ccc21 [Motesanib] + COc1cccc2cc(-c3nc([C@H]4CC[C@H](C(=O)O)CC4)n4ncnc(N)c34)[nH]c12 [OSI-027] (partner 0.5 µM)
Method in brief: (§1)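 Lung cancer cell lines were pin-tool dosed in 1536-well plates on the day after seeding, with either a lone drug or a fixed anchor-drug dose plus five library-drug doses (not always all listed) in √10 steps. Nuclei were counted on 4× images after 5 days. Relative viability is the ratio of treated-well to vehicle-well nuclei counts, with each value a median of duplicate plates.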

[2] = compound: CC1(C)CNc2cc(NC(=O)c3cccnc3NCc3ccncc3)ccc21 [Motesanib] + CS(=O)(=O)CCNCc1ccc(-c2ccc3ncnc(Nc4ccc(OCc5cccc(F)c5)c(Cl)c4)c3c2)o1 [Lapatinib] (partner 2 µM)
Method in brief: as §1

[3] = compound: CC1(C)CNc2cc(NC(=O)c3cccnc3NCc3ccncc3)ccc21 [Motesanib] + O=C(CCCCCCC(=O)Nc1ccccc1)NO [Vorinostat] (partner 1 µM)
Method in brief: as §1

[4] = compound: CC1(C)CNc2cc(NC(=O)c3cccnc3NCc3ccncc3)ccc21 [Motesanib] + Nc1nc2[nH]cc(CCc3ccc(C(=O)N[C@@H](CCC(=O)O)C(=O)O)cc3)c2c(=O)[nH]1 [Pemetrexed] (partner 0.2 µM)
Method in brief: as §1

Cell Line: UMC-11
- relative viability ([1]; first compound 0.01 µM): 0.461
- relative viability ([1]; first compound 0.03162 µM): 0.466
- relative viability ([1]; first compound 0.1 µM): 0.38
- relative viability ([1]; first compound 0.3162 µM): 0.503
- relative viability ([1]; first compound 1 µM): 0.51
- relative viability ([2]; first compound 0.01 µM): 0.901
- relative viability ([2]; first compound 0.03162 µM): 1.07
- relative viability ([2]; first compound 0.1 µM): 0.724
- relative viability ([2]; first compound 0.3162 µM): 1
- relative viability ([2]; first compound 1 µM): 1.08
- relative viability ([3]; first compound 0.01 µM): 0.44
- relative viability ([3]; first compound 0.03162 µM): 0.438
- relative viability ([3]; first compound 0.1 µM): 0.345
- relative viability ([3]; first compound 0.3162 µM): 0.426
- relative viability ([3]; first compound 1 µM): 0.476
- relative viability ([4]; first compound 0.01 µM): 0.834
- relative viability ([4]; first compound 0.03162 µM): 0.696
- relative viability ([4]; first compound 0.1 µM): 0.575
- relative viability ([4]; first compound 0.3162 µM): 0.608
- relative viability ([4]; first compound 1 µM): 0.556
